Article PMC8264504, “Identification of Koumine as a Translocator Protein 18 kDa Positive Allosteric Modulator for the Treatment of Inflammatory and Neuropathic Pain” (Frontiers in Pharmacology, 2021)
Where two headings read alike, the source gives them in different places.

Tests used:
[1] = molecular target: T1, TSPO from rat cerebral cortex (Rattus norvegicus, UniProt P16257); experiment: 3H-PK11195 saturation binding; settings: 0.125–32 nM, 4°C, 2 h
T1 construct: male SD rats (240 ± 10 g) were killed by decapitation, and the cerebral cortices were dissected; from tissue; host or cells: rat (SD) cerebral cortex, crude mitochondrial/membrane pellet
T1 sequence (P16257 whole entry): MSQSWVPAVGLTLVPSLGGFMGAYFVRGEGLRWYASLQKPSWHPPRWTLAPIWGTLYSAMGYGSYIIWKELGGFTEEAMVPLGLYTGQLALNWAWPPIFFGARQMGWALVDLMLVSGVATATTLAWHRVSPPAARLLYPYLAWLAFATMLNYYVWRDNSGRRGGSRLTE
Description: After incubating at 4°C for 2 h, the reaction was terminated by the addition of ice-cold 50 mM Tris HCl buffer (pH 7.4) followed by vacuum filtration through Filtermat A glass microfiber filters (pretreated with 0.2% polyethylenimine) using a Brandel cell harvester. The filters were washed rapidly, and radioactivity was determined by liquid scintillation spectrometry.

[2] = molecular target: T1, TSPO from rat cerebral cortex; experiment: 3H-PK11195 dissociation kinetics; format: binding; settings: vehicle; dissociation induced by 10 μM PK11195, 4°C
Description: Briefly, male SD rats (240 ± 10 g) were killed by decapitation, and the cerebral cortices were dissected. The tissues were homogenized in 10 volumes (ml/g) of 50 mM Tris HCl buffer containing 0.32 M sucrose (pH 7.4). The homogenates were centrifuged at 1,000 g for 10 min at 4°C. The resulting pellets were discarded, and the supernatants were centrifuged at 9,000 g for 15 min. The pellets were resuspended in 10 volumes of Tris HCl buffer containing 0.32 M sucrose (pH 7.4) and centrifuged at 13,000 g for 30 min, then resuspended in 10 volumes of Tris HCl buffer and centrifuged again at 13,000 g for 30 min. The final pellets were suspended in Tris HCl buffer and used in the binding assays. Protein concentrations were measured using the BCA Protein Assay Kit (ThermoFisher Scientific) according to the manufacturer’s instructions.
Then, samples were filtered through Filtermat A glass microfiber filters (pretreated with 0.2% polyethylenimine) using a Brandel cell harvester, and the radioactivities were measured at the indicated time points.

[3] = molecular target: T2, mouse TSPO recombinant protein (TSPO proteoliposomes) (Mus musculus, UniProt P50637); experiment: SPR single-cycle kinetics on TSPO proteoliposomes; format: binding
T2 construct: His tag; made in house; host or cells: Escherichia coli BL21(DE3) pLysS, pET15b vector
Description: (§1) Cells of the BL21(DE3) pLysS Escherichia coli strain were transformed with the pET15b vector, from which the expression of mouse TSPO recombinant protein was induced by 1 mM isopropyl-1-thiol-β-D-galactopyranoside as previously described ([Robert and Lacapère, 2010]; [Senicourt et al., 2017]). Cells were harvested and resuspended in lysis buffer (150 mM NaCl and 50 mM HEPES-Na, pH 7.8) with the addition of 1 mg/ml lysozyme and sonicated thoroughly. The lysate was centrifuged at 15,000 g at 4°C for 20 min to pellet the insoluble inclusion bodies. The final pellet of inclusion bodies was solubilized in binding buffer (150 mM NaCl, 50 mM HEPES-Na, 1% SDS (wt/vol), pH 7.8) and was purified by the Ni-NTA gravity flow column.
Proteoliposomes composed of DMPC/DMPE (9:1) and TSPO in a 5:1 (wt/wt) ratio were prepared using a previously described method ([Ostuni et al., 2010]). Liposomes composed of DMPC/DMPE (9:1) were prepared as published previously ([Hatty et al., 2014]). A few milligrams of DMPC and DMPE were weighed into a round-bottom glass flask, and chloroform and methanol were added to dissolve them. A thin lipid film was prepared by a rotary evaporator and dried under vacuum for at least 3 h to remove all traces of chloroform and methanol. The dry lipid film was resuspended in PBS buffer (10 mM phosphate buffer, 2.7 mM KCl, 137 mM NaCl) to a concentration of 1 mg/ml, hydrated for 2 h at 45–55°C, and finally sonicated to produce small unilamellar vesicles. The suspension of small unilamellar vesicles was then kept at 45°C for use on the same day. The sizes of proteoliposomes and liposomes were determined by dynamic light scattering using Nicomp 380 Z3000 instrument (Parficle Sizing Systems, America).
SPR analyses were performed at 25°C with a Biacore T200 instrument. For proteoliposomes and liposomes (reference), they were immobilized on a series S L1 sensor chips. It is possible that the repeated regeneration steps in the multicycle kinetics process impairs the activity of TSPO proteoliposomes, thus we were unable to use multicycle kinetics to effectively determine the affinity of TSPO and its ligands. Therefore, the single cycle kinetics, which assumes to be as robust as the classical multicycle kinetics for measuring affinity, was used. Kinetic rate constants for the various analytes were determined using single cycle protocols where five serial 2-fold dilutions of the analytes were injected for 180 s without intervening regeneration, followed by a 300 s dissociation phase after the last injection. Interactions were measured at 30 μl/min. PBS, with addition of 1% DMSO (pH 7.4), was used as running buffer. […] For mouse TSPO in a lipid-free environment, affinity was measured according to established methods with minor modifications ([Zhang et al., 2015]). […]

TSPO = molecular target: TSPO; parameters: method as in Awad and Gavish, 1987; Verma et al., 1987; settings: radioligand binding experiment results from literatures, ref Awad and Gavish, 1987, Verma et al.; cited from earlier work
[4] = molecular target: T3, mouse TSPO recombinant protein (Mus musculus, UniProt P50637); experiment: SPR multicycle kinetics, mouse TSPO in a lipid-free environment; format: binding; settings: CM5 chip, anti-His capture, read-out: affinity to mouse TSPO
T3 construct: made in house; host or cells: Escherichia coli BL21(DE3) pLysS, pET15b vector
Description: as §1
SPR analyses were performed at 25°C with a Biacore T200 instrument. For proteoliposomes and liposomes (reference), they were immobilized on a series S L1 sensor chips. It is possible that the repeated regeneration steps in the multicycle kinetics process impairs the activity of TSPO proteoliposomes, thus we were unable to use multicycle kinetics to effectively determine the affinity of TSPO and its ligands. Therefore, the single cycle kinetics, which assumes to be as robust as the classical multicycle kinetics for measuring affinity, was used. Kinetic rate constants for the various analytes were determined using single cycle protocols where five serial 2-fold dilutions of the analytes were injected for 180 s without intervening regeneration, followed by a 300 s dissociation phase after the last injection. Interactions were measured at 30 μl/min. PBS, with addition of 1% DMSO (pH 7.4), was used as running buffer. Three consecutive 1 min injections with 10 μl/min of glycine HCl 3.0 at the end of each single-cycle kinetics regenerated the chip. For mouse TSPO in a lipid-free environment, affinity was measured according to established methods with minor modifications ([Zhang et al., 2015]). Briefly, HBS-EP buffer was used as the running buffer. […]

[5] = system: T98G human glioblastoma cells; experiment: Cell proliferation assay (BrdU ELISA); format: cell-based; settings: 48 h
Description: T98G cells were plated at 1 × 10^4 cells/well in 96-well plates. […] After 48 h of drug exposure, proliferation was indexed using a BrdU ELISA Kit (Roche Molecular Diagnostics) according to the manufacturer’s protocol, and absorption was measured at 370 nm (reference wavelength 492 nm).

[6] = system: T98G human glioblastoma cells; experiment: Cell viability assay (CellTiter Blue); format: cell-based; settings: same dosing regimen as proliferation, 48 h
Description: T98G cells were plated and treated as in the proliferation assays. After 48 h of drug exposure, CellTiter Blue Reagent (Promega) was added to the cells and incubated for 4 h in 5% CO2 at 37°C. Absorption was measured at 570 nm using 600 nm as a reference wavelength.

rat C6 glioma cells = experiment: Pregnenolone production; format: cell-based; settings: 2 h
[7] = system: postoperative pain model of rats; parameters: method as in Xiong et al., 2017; settings: ref Xiong et al., 2017, cited from earlier work

With `CCC(C)N(C)C(=O)c1cc2ccccc2c(-c2ccccc2Cl)n1` (stereo not drawn) [^3H-PK11195, reference compound] the Bmax [1] was 143.3 ± 5.4 fmol/mg protein and the “dissociation rate of 3H-PK11195” value [2] was 0.0419 ± 0.0016 min⁻¹.
For `C=CC1=C(C)c2cc3[nH]c(cc4nc(cc5[nH]c(cc1n2)c(C)c5CCC(=O)O)C(CCC(=O)O)=C4C)c(C)c3C=C` [protoporphyrin IX], the Kd ([3]; SPR single-cycle kinetics, TSPO proteoliposomes on L1 chip, 25°C, Langmuir 1:1 fit, read-out: KD) is given as 0.0126 ± 0.00039 µM and the Kd (TSPO) is given as 0.0145 ± 0.0107 µM.
With `CCC(C)N(C)C(=O)c1cc2ccccc2c(-c2ccccc2Cl)n1` (stereo not drawn) [PK11195] the Kd [3] was 0.00197 ± 2e-05 µM, the Kd [4] was 161 ± 6.1 µM and the “EC20 concentration, inhibition of cell proliferation” value ([5]; BrdU) was ~75 µM. The EC50 ([5]; Homo sapiens, T98G, read-out: EC50, inhibition of cell proliferation) was 81 µM, the cell viability [6] was “not significantly affected” and the “EC20 concentration, pregnenolone production” value (rat C6 glioma cells) was ~27 µM. For the same molecule, the “increase in pregnenolone production” value (rat C6 glioma cells; vs vehicle) was “approximately 50%”, the EC50 (rat C6 glioma cells; Rattus norvegicus, C6 glioma, read-out: EC50, pregnenolone production) was 69 µM and the analgesic effect ([7]; 7 μg PK11195 alone, intrathecal) was “can also produce a certain analgesic effect”. The “effect on analgesic effect of intrathecal 200 μg koumine” value ([7]; intrathecal 0.7 μg PK11195 with 200 μg koumine) was “weakened the analgesic effect” and the analgesic effect ([7]; intrathecal injection of 0.7 μg PK11195) was “had no analgesic effect”.
